Laboratory results reported in PMC4482410, “A Peptide Mimetic of 5-Acetylneuraminic Acid-Galactose Binds with High Avidity to Siglecs and NKG2D” (PLoS ONE, 2015).
“And” between values parts separate entries of the source, which are not always exact repeats. Identical values can stand only once. Bridges are numbered along the chain shown (N, C = ends). Roman numbers before positions name the chains, in order. Where no end group is shown, it is not given here.

Columns and labels:
toxicity in vivo = conditions: statement for svH1C or similar glycan mimetics; no data shown
NKG2D [1] = biological target: T1, NKG2D (Homo sapiens, UniProt P26718); experiment: inhibition of binding of svH1C to NKG2D; conditions: estimated from fetuin inhibition (Fig 4); read-out: binding constant of svH1C to NKG2D estimated by inhibition of binding by fetuin
T1 construct: the extracellular lectin-type domain was fused at the N-terminus with a human IgG1 Fc domain; purchased R&D Systems, Inc., Minneapolis, MN
T1 sequence (P26718 73-216 limits assumed): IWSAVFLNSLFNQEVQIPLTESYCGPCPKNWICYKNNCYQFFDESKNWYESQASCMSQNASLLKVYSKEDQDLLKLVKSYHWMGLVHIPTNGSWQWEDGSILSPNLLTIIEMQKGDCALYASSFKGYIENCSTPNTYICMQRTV
Description: (§1) Isothermal microcalorimetry was performed by TA Instruments Professional Services (New Castle, DE) by titrating 10 μM NKG2D (monomer concentration) (R&D Systems, Inc., Minneapolis, MN) with 100 μM svH1C in 50 mM Tris-HCl, pH 7.5, 150 mM NaCl, 0.1 mM EDTA. Recombinant human receptors were obtained from R&D Systems as chimeric proteins. NKG2D is a type II transmembrane protein and the extracellular lectin-type domain was fused at the N-terminus with a human IgG1 Fc domain. Recombinant siglecs contained a C-terminal IgG1 Fc domain or a His6–10 tag. The lyophilized proteins were reconstituted in phosphate-buffered saline, pH 7.2 (PBS), to 100 μg/mL. The Fc-chimeric proteins were bound to protein A/G-coated wells of microtiter plates (Pierce Biotechnology). His-tagged proteins were bound in Nickel-coated plates (Pierce Biotechnology). Sufficient proteins were added to wells to saturate the binding capacity of the wells. After a wash to remove unbound receptor, wells were blocked with 1% gelatin in wash buffer. […] Absorbance was measured at 450 nm and converted to the amount of streptavidin-peroxidase bound with the specific activity of the conjugate determined under the conditions of the assay. […]
Fig 4 Binding of svH1C to NKG2D. (A) The amount of bound peptide was measured after extensive washing with PBS containing 0.05% Tween-20. […]

NKG2D [2] = biological target: T1, NKG2D; experiment: isothermal microcalorimetry; format: binding
Description: as §1, with “wells.” for “wells. After a wash to remove unbound receptor, wells were blocked with 1% gelatin in wash buffer.”
We then assayed binding of svH1C to NKG2D directly by isothermal microcalorimetry. svH1C (100 μM) was titrated into a solution of NKG2D (10 μM, subunit concentration) and changes in heat content of the system were measured. […]

siglecs = experiment: solid-phase binding of biotinylated tetravalent peptides to siglecs; parameters: species or system human; conditions: biotinylated peptides 2 μM
Description: as §1, with “buffer. Wash buffers were either 10 mM phosphate, pH 7.2; 10 mM HEPES, pH 7.4; or 50 mM Tris-HCl, pH.7.5, each in 150 mM NaCl containing 0.05% Tween-20. Biotinylated peptides were prepared as 2 μM solutions in the wash buffer and 50 μL (100 pmoles) were added to each well and incubated at room temperature for one hour. After four washes with 350 μL buffer containing 0.05% Tween-20, each assay was incubated with 50 μL of 1 μg/mL streptavidin-peroxidase (Sigma-Aldrich, St. Louis, MO).” for “buffer.”
MAA is a mixture of M. amurensis leukoagglutinin (MAL) and M. amurensis hemagglutinin (MAH), both of which along with SNA1 bind preferentially to terminal Neu5Ac-Gal- sequences on complex glycans. Binding of the peptide to several lectins specific for monosaccharides was not detected. […]

[3] = tested on: lectins that bind monosaccharides; conditions: ref [29],[30]; cited from earlier work
From the text: We initially identified several sequences of amino acids that bound to specific plant lectins by screening phage display libraries. Sequences were further refined by in silico modeling of docking of a peptide into the sugar binding site of the crystal structures of lectins. These studies predicted that several short peptide sequences, 5 to 8 amino acids in length, would have significant affinity to lectins chosen as analogs of cell-surface receptors. […] MAA is a mixture of M. amurensis leukoagglutinin (MAL) and M. amurensis hemagglutinin (MAH), both of which along with SNA1 bind preferentially to terminal Neu5Ac-Gal- sequences on complex glycans. Binding of the peptide to several lectins specific for monosaccharides was not detected. We then assayed binding of svH1C to several siglecs, which comprise a family of cell-surface receptors that are specific for Neu5Ac-Gal/GalNAc- sequ ...

[4] = tested on: lectins specific for di- or tri-saccharides that terminate with Neu5Ac-Gal; conditions: ref [29],[30]; cited from earlier work
From the text: We initially identified several sequences of amino acids that bound to specific plant lectins by screening phage display libraries. Sequences were further refined by in silico modeling of docking of a peptide into the sugar binding site of the crystal structures of lectins. These studies predicted that several short peptide sequences, 5 to 8 amino acids in length, would have significant affinity to lectins chosen as analogs of cell-surface receptors. The sequences identified by this approach were incorporated into tetravalent structures, a design based on the concept of avidity as a fun ...

Substance	toxicity in vivo (toxicity in vivo)	Kd (NKG2D [1])	Kd (NKG2D [2]; 100 μM svH1C titrated into 10 μM NKG2D (subunit concentration), 50 mM Tris-HCl, pH 7.5, 150 mM NaCl, 0.1 mM EDTA, read-out: KD)	Kd (NKG2D [2]; abstract, range for siglecs and NKG2D together, read-out: KD, NKG2D (abstract range))	binding of biotinylated tetravalent peptides to siglecs (siglecs)	binding to lectins specific for monosaccharides [3]	binding to lectins specific for di- or tri-saccharides that terminate with Neu5Ac-Gal [4]
I: NPSHPLSGGGGSKK-NH2 / II: NPSHPLSGGGGSK / III: NPSHPLSGGGGS / IV: NPSHPLSGGGGS (amide I:13-IV:C, I:14-II:C, II:13-III:C) [svH1C, [(NPSHPLSGGGGS)2K]2K-NH2]	non-toxic in vivo	~1000 nM	580 nM and 600 nM	600 to 1000 nM	–	–	–
NPSHPSLG (also: tetravalent, biotinylated) [svH1D]	–	–	–	–	also bound to siglecs	did not bind	bound strongly
